Source: article PMC9230797, “Integration of a Physiologically Based Pharmacokinetic and Pharmacodynamic Model for Tegoprazan and Its Metabolite: Application for Predicting Food Effect and Intragastric pH Alterations” (Pharmaceutics, 2022)

Legend:
[1] = system: CYP3A4; set-up: method as in ref 18 = [18]; PMID 34575565; doi:10.3390/pharmaceutics13091489; 18. Yoon D.Y. Lee S. Jang I.-J. Kim M. Lee H. Kim S. Kim B. Song G.S. Rhee S.-J. Prediction of Drug–Drug Interaction Potential of Tegoprazan Using Physiologically Based Pharmacokinetic Modeling and Si; conditions: cited from earlier work
[2] = Clinical PK of single and repeated oral doses of tegoprazan in healthy adult males (literature); format: in vivo, human; conditions: 100 mg once daily; from values of ref 15
[3] = Microsomal metabolic stability in human liver microsomes; format: in vitro ADME
Experimental: The NADPH-generating system, glucose 6-phosphate (3.3 mM), 0.1 M potassium phosphate (pH 7.4), and human liver microsomes (HLMs; 0.5 mg/mL) were combined and incubated at 37 °C for 5 min. The organic content in the reaction mixture was 0.01% DMSO and less than 1% acetonitrile. Then, 1 μM tegoprazan and M1 were added to the reaction tube (total volume: 160 μL) and incubated at 37 °C for 0, 5, 15, 30, and 60 min. To terminate the reaction, 320 μL of acetonitrile containing an internal standard (100 ng/mL carbamazepine) was added to each sample. All experiments were performed in triplicate. The samples were vortexed for 5 min and centrifuged at 3000 rpm at 4 °C for 10 min. The concentrations of tegoprazan and M1 were determined by liquid chromatography–tandem mass spectrometry (LC–MS/MS). The concentrations of tegoprazan and M1 at 0 min were used to assess metabolism by HLMs based on changes in drug concentration over time. The terminal slope of linear regression was used to calculate the intrinsic clearance (CLint) of tegoprazan and M1. For the in vitro HLM system, CLint was calculated using Equation (1). CLint,mic (μL/min/mg protein) = k × Vincubation/Cincubation(1) where Vincubation is the incubation volume and Cincubation is the concentration of the microsomal protein.

[4] = set-up: method as in PMID 31437865; conditions: cited from earlier work
[5] = PBPK model prediction of plasma PK (SimCYP simulator); set-up: species or system human
Text: The tegoprazan and M1 PBPK models were developed using SimCYP® simulator, version 20 (Certara, Princeton, NJ, USA). Compound libraries were incorporated into an in vitro dataset, including the microsomal clearance of tegoprazan and M1. Observed PK parameters were obtained from the aforementioned clinical studies (Table 1 and Table 2).
The absorption of tegoprazan was applied to the advanced dissolution, absorption, and metabolism (ADAM) model, and the diffusion layer model (DLM) built into SimCYP® was applied to the considered formulation and pH-dependent solubility of tegoprazan. The permeability of tegoprazan was determined by a Caco-2 permeability assay and optimized by parameter estimation. Caco-2 permeability was optimized such that the predicted concentration–time profiles were fitted to clinical study data. The metabolite was generated by the metabolism of the parent drug; therefore, absorption was not considered.
The tissue distribution in the PBPK model was predicted by the distribution model (e.g., Rodger and Rowland method, Poulin and Theil method) and the tissue:plasma partition coefficient (Kp) scalar for specific organ or global values. Predicted systemic distribution was expressed as the volume of distribution in a steady state (Vss). The Vd values of the clinical study were applied to the initial model of tegoprazan, and parameter estimation was used to determine the optimized Kp scalar fitted to the observed data. The Rodger and Rowland method (method 2) was applied to consider the weak base property and distribution of the neutral and ionic forms. The minimal PBPK model was applied to the M1 distribution module to reduce the complexity. The volume of a single adjusting compartment (Vsac), non-physiological compartment, input rate to SAC (kin), and elimination rate from SAC (kout) were estimated using the parameter estimation module within SimCYP®.
The elimination profiles of tegoprazan and M1 were obtained from in vitro, in vivo, and in silico predictions. Optimized in-house intrinsic clearance for CYPs (CLint,rCYPs), and human liver microsomal and cytosolic (HLM and HLC) clearance were applied to the elimination module of the tegoprazan model. Observed or estimated renal and biliary clearance were applied to the tegoprazan and M1 models. Whole-organ metabolic clearance, using the optimized value for the in vitro assay results, was applied to the M1 model.
The virtual dosing regimen was set to a single oral dose of 100 mg tegoprazan, to match that of the observed data. The simulation conditions were set for 100 virtual subjects who participated in 10 virtual clinical studies (1000 volunteers). The age range was 20 to 40 years, and the male-to-female ratio was 1:1. The predicted and observed PK parameters were compared to evaluate the model prediction results. […] If the predicted vs. observed ratio and its 95% CI were within the 30% range (0.7–1.3), the model was considered to fit well.
Postprandial PK profiles were predicted using an established model. Concentration–time profiles were obtained following a single oral dose (50 mg) of tegoprazan in the fasting state or 30 min after a high-fat diet. The predicted AUClast, Cmax, and Tmax values were compared with those of a previous clinical study.

[6] = At 30 min after a high-fat meal, single 50 mg
[7] = single 100 mg tegoprazan, (95% confidence interval)

decrease of observed Cmax at Day 7 compared with Day 1 [2]: approximately 40.2% | HLM intrinsic clearance (CLint,HLM) ([3]; 1 μM, HLM 0.5 mg/mL with NADPH, experimental data): 15.96 μL/min/mg protein | percentage remaining after incubation ([3]; control sample without NADPH): 99.54% ± 5.32 | microsomal CLint at 1 μM ([3]; human, human liver microsomes, pH 7.4, 1 μM, HLM 0.5 mg/mL with NADPH, experimental data, read-out: HLM intrinsic clearance (CLint,HLM)): 16 µL/min/mg | increase of predicted Cmax at Day 7 compared with Day 1 ([5]; 100 mg once daily): approximately 1.84% | AUC0–24 h Ratio (Predicted/Observed) [5, 6]: 0.88 (0.43–1.32) | Cmax Ratio (Predicted/Observed) [5, 6]: 0.96 (0.32–1.59) | AUC0–24 h Ratio (Predicted/Observed) ([5]; Fast, single 50 mg): 0.89 (0.45–1.33) | Cmax Ratio (Predicted/Observed) ([5]; Fast, single 50 mg): 0.85 (0.62–1.09) | decrease of predicted mean Cmax after a high-fat diet vs fasted state ([5]; single 50 mg): 31.3% | AUC0–24 h Ratio (Predicted/Observed) [5, 7]: 0.90 (0.85–0.96) | CL Ratio (Predicted/Observed) [5, 7]: 1.25 (1.17–1.34) | Cmax Ratio (Predicted/Observed) [5, 7]: 0.88 (0.80–1.00)
Structure (SMILES): Cc1nc2cc(C(=O)N(C)C)cc(O[C@H]3CCOc4cc(F)cc(F)c43)c2[nH]1 [tegoprazan]
predicted systemic exposure change ([1]; co-administered with the maximum recommended dose of clarithromycin or ketoconazole vs without CYP3A4 modulator): increased by approximately three-fold | predicted decrease of systemic exposure ([1]; with the CYP3A4 inducer rifampicin): up to 30% | observed Cmax, Day 7 ([4]; 100 mg once daily for 7 days): 845.2 ± 40.7 ng/mL | observed Cmax, Day 1 ([4]; 100 mg once daily): 1413.3 ± 24.7 ng/mL
